Assay results reported in US10927111B2, “Inhibitors of RAF kinases” (Kinnate Biopharma Inc., priority 2019, dated 2021).

Each compound was assayed against human RAF1 (Homo sapiens (Human), UniProt P04049) (assay: Protein kinase assay (radiometric 33P-ATP, MEK1 (K97R) substrate)). Conditions: human MEK1 (K97R) substrate 3 micromolar, ATP 10 micromolar, 10-dose IC50 mode; read-out: RAF-1 IC50.
Format: biochemical
Experimental: Protein kinase assay: Assay platform was used to measure kinase/inhibitor interactions as described previously (Anastassiadis et al., 2011). In brief, for each reaction, kinase and substrate were mixed in a buffer containing 20 mM HEPES (pH 7.5), 10 mM MgCl2, 1 mM EGTA, 0.02% Brij35, 0.02 mg/mL BSA, 0.1 mM Na3VO4, 2 mM DTT, and 1% DMSO. All compounds were solubilized in DMSO. Compounds were then added to each reaction mixture via acoustic dispense using an ECHO 550 nanoliter dispenser. For human RAF1 testing, human MEK1 (K97R) was used as a substrate at a concentration of 3 micromolar, with a final ATP concentration of 10 micromolar. For human BRAF testing, human MEK1 (K97R) was used as a substrate at 1 micromolar concentration, with a final ATP concentration of 25 micromolar. […] After a 20-min incubation, ATP (Sigma-Aldrich, St. Louis, Mo. 63178) and [g33P] ATP (specific activity 10 microCi/microliter) purchased at PerkinElmer (Boston, Mass., 02118 Cat #BLU 003H250UC) were added at a final total concentration of 10 mM. Reactions were carried out at room temperature for 2 hr and spotted onto P81 ionexchange cellulose chromatography paper (Reaction Biology). Filter paper was washed in 0.75% phosphoric acid to remove unincorporated ATP. The percent remaining kinase activity relative to a vehicle-containing (DMSO) kinase reaction was calculated for each kinase/inhibitor pair. IC50 values were calculated using Prism 5 (GraphPad).

Sequence of human RAF1 (P04049 whole entry): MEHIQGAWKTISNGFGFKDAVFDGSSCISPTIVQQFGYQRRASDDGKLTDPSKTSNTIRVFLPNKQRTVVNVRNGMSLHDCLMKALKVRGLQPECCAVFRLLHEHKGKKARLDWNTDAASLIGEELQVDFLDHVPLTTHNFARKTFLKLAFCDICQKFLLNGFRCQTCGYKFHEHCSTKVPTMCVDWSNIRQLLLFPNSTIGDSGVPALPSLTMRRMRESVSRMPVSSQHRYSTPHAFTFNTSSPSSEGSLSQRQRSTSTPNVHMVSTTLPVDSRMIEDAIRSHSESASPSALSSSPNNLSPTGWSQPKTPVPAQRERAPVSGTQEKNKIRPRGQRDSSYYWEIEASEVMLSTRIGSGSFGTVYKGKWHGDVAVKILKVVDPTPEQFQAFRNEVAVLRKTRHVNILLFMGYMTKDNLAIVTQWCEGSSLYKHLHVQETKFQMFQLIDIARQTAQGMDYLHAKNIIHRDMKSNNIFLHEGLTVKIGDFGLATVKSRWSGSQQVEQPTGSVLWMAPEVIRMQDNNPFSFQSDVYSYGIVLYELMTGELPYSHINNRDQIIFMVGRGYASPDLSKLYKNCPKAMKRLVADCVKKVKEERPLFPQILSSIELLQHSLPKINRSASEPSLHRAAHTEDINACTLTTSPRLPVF

IC50, ≤ 10 nM:
CNc1ncc2cc(-c3cc(NC(=O)N4CCO[C@@H](C(F)(F)F)C4)c(F)cc3C)c(C)nc2n1 [Example 10, (2R)-N-[2-fluoro-4-methyl-5-[7-methyl-2-(methylamino)pyrido[2,3-d]pyrimidin-6-yl]phenyl]-2-(trifluoromethyl)morpholine-4-carboxamide]
CNc1ncc2cc(-c3cc(NC(=O)N4CCO[C@@H](C(F)(F)F)C4)ccc3C)c(C)nc2n1 [Example 12, (2R)-N-[4-methyl-3-[7-methyl-2-(methylamino)pyrido[2,3-d]pyrimidin-6-yl]phenyl]-2-(trifluoromethyl)morpholine-4-carboxamide]
CNc1ncc2cc(-c3cc(NC(=O)c4ccnc(C(F)(F)F)c4)ccc3C)cnc2n1 [Example 53, N-[4-methyl-3-[2-(methylamino)pyrido[2,3-d]pyrimidin-6-yl]phenyl]-2-(trifluoromethyl)pyridine-4-carboxamide]
CNc1ncc2cc(-c3cc(NC(=O)N4CC[C@@H](OC(F)(F)F)C4)c(F)cc3C)cnc2n1 [Example 60, (3R)-N-[2-fluoro-4-methyl-5-[2-(methylamino)pyrido[2,3-d]pyrimidin-6-yl]phenyl]-3-(trifluoromethoxy)pyrrolidine-1-carboxamide]
Cc1ccc(NC(=O)c2ccnc(C(F)(F)F)c2)cc1-c1cc2cnc(NCCO)nc2nc1C [Example 40, N-(3-(2-((2-hydroxyethyl)amino)-7-methylpyrido[2,3-d]pyrimidin-6-yl)-4-methylphenyl)-2-(trifluoromethyl)isonicotinamide]
CNc1ncc2cc(-c3cc(NC(=O)N4CCO[C@H](C(F)(F)F)C4)ccc3C)cnc2n1 [Example 57]
CNc1ncc2cc(-c3cc(NC(=O)N4CCC(C(C)(C)C)C4)c(F)cc3C)c(C)nc2n1 (stereo not shown) [Example 21, 3-(tert-butyl)-N-(2-fluoro-4-methyl-5-(7-methyl-2-(methylamino)pyrido[2,3-d]pyrimidin-6-yl)phenyl)pyrrolidine-1-carboxamide]
CNc1ncc2cc(-c3cc(NC(=O)c4cc(C)nc(C(F)(F)F)c4)ccc3C)c(C)nc2n1 [Example 34, 2-methyl-N-(4-methyl-3-(7-methyl-2-(methylamino)pyrido[2,3-d]pyrimidin-6-yl)phenyl)-6-(trifluoromethyl)isonicotinamide]
CNc1ncc2cc(-c3cc(NC(=O)c4ccnc(C(F)(F)F)c4)ccc3C)c(C#N)nc2n1 [Example 72, N-[3-[7-cyano-2-(methylamino)pyrido[2,3-d]pyrimidin-6-yl]-4-methylphenyl]-2-(trifluoromethyl)pyridine-4-carboxamide]
CNc1ncc2cc(-c3cc(NC(=O)N4CCn5cnc(C(F)(F)F)c5C4)ccc3C)c(C)nc2n1 [Example 24, N-(4-methyl-3-(7-methyl-2-(methylamino)pyrido[2,3-d]pyrimidin-6-yl)phenyl)-1-(trifluoromethyl)-5,6-dihydroimidazo[l,5-a]pyrazine-7(8H)-carboxamide]
CNc1ncc2cc(-c3cc(NC(=O)N4CCC(C(F)(F)F)C4)ccc3C)c(C)nc2n1 (stereo not shown) [Example 14, N-(4-methyl-3-(7-methyl-2-(methylamino)pyrido[2,3-d]pyrimidin-6-yl)phenyl)-3-(trifluoromethyl)pyrrolidine-1-carboxamide]
CCOc1nc2nc(NC)ncc2cc1-c1cc(NC(=O)c2ccnc(C(F)(F)F)c2)ccc1C [Example 69, N-[3-[7-ethoxy-2-(methylamino)pyrido[2,3-d]pyrimidin-6-yl]-4-methylphenyl]-2-(trifluoromethyl)pyridine-4-carboxamide]
CNc1ncc2cc(-c3cc(NC(=O)c4ccnc(C(F)(F)F)c4)ccc3C)c(Cl)nc2n1 [Example 64, N-[3-[7-chloro-2-(methylamino)pyrido[2,3-d]pyrimidin-6-yl]-4-methylphenyl]-2-(trifluoromethyl) pyridine-4-carboxamide]
Cc1ccc(NC(=O)c2ccnc(C(F)(F)F)c2)cc1-c1cc2cnc(NC3CCN(C)CC3)nc2nc1C [Example 42, N-(4-methyl-3-(7-methyl-2-((1-methylpiperidin-4-yl)amino)pyrido[2,3-d]pyrimidin-6-yl)phenyl)-2-(trifluoromethyl)isonicotinamide]
CNc1ncc2cc(-c3cc(NC(=O)c4ccnc(C(F)(F)F)c4)c(F)cc3C)c(C)nc2n1 [Example 7, N-[2-fluoro-4-methyl-5-[7-methyl-2-(methylamino)pyrido[2,3-d]pyrimidin-6-yl]phenyl]-2-(trifluoromethyl) pyridine-4-carboxamide]
CNc1ncc2cc(-c3cc(NC(=O)N4CC[C@H](OC(F)(F)F)C4)cnc3C)cnc2n1 [Example 63, (3S)-N/-[6-methyl-5-[2-(methylamino)pyrido[2,3-d]pyrimidin-6-yl]pyridin-3-yl]-3-(trifluoromethoxy)pyrrolidine-1-carboxamide]
CNc1ncc2cc(-c3cc(NC(=O)N4CCO[C@H](C(F)(F)F)C4)c(F)cc3C)c(C)nc2n1 [Example 11, (2S)-N-[2-fluoro-4-methyl-5-[7-methyl-2-(methylamino)pyrido[2,3-d]pyrimidin-6-yl]phenyl]-2-(trifluoromethyl)morpholine-4-carboxamide]
CNc1ncc2cc(-c3cc(NC(=O)N4CC[C@H](OC(F)(F)F)C4)ccc3C)cnc2n1 [Example 56, 3S-N-[4-methyl-3-[2-(methylamino)pyrido[2,3-d]pyrimidin-6-yl]phenyl]-3-(trifluoromethoxy)pyrrolidine-1-carboxamide]
CNc1ncc2cc(-c3cc(NC(=O)N4CC[C@H](CC(F)(F)F)C4)c(F)cc3C)c(C)nc2n1 [Example 17, (R)-N-(2-fluoro-4-methyl-5-(7-methyl-2-(methylamino)pyrido[2,3-d]pyrimidin-6-yl)phenyl)-3-(2,2,2-trifluoroethyl)pyrrolidine-1-carboxamide]
CNc1ncc2cc(-c3cc(NC(=O)N4CC[C@@H](OCC(F)(F)F)C4)c(F)cc3C)c(C)nc2n1 [Example 51, (3R)-N-[2-fluoro-4-methyl-5-[7-methyl-2-(methylamino)pyrido[2,3-d]pyrimidin-6-yl]phenyl]-3-(2,2,2-trifluoroethoxy)pyrrolidine-1-carboxamide]
CNc1ncc2cc(-c3cc(NC(=O)N4CC[C@@H](CC(F)(F)F)C4)ccc3C)c(C)nc2n1 [Example 20, (S)-N-(4-methyl-3-(7-methyl-2-(methylamino)pyrido[2,3-d]pyrimidin-6-yl)phenyl)-3-(2,2,2-trifluoroethyl)pyrrolidine-1-carboxamide]
CNc1ncc2cc(-c3cc(NC(=O)N4CC=C(C(F)(F)F)C4)c(F)cc3C)c(C)nc2n1 [Example 3, N-(2-fluoro-4-methyl-5-(7-methyl-2-(methylamino)pyrido[2,3-d]pyrimidin-6-yl)phenyl)-3-(trifluoromethyl)-2,5-dihydro-1H-pyrrole-1-carboxamide]
CNc1ncc2cc(-c3cc(NC(=O)N4CCC5(CCC(F)(F)C5)C4)c(F)cc3C)c(C)nc2n1 (stereo not shown) [Example 15, 7,7-difluoro-N-(2-fluoro-4-methyl-5-(7-methyl-2-(methylamino)pyrido[2,3-d]pyrimidin-6-yl)phenyl)-2-azaspiro[4.4]nonane-2-carboxamide]
CNc1ncc2cc(-c3cc(NC(=O)c4cccc(C(F)(F)F)c4)ccc3C)c(C)nc2n1 [Example 29, N-(4-methyl-3-(7-methyl-2-(methylamino)pyrido[2,3-d]pyrimidin-6-yl)phenyl)-3-(trifluoromethyl)benzamide]
CNc1ncc2cc(-c3cc(NC(=O)N4CC[C@@H](C(F)(F)F)C4)c(F)cc3C)c(C)nc2n1 [Example 2, (R)-N-(2-fluoro-4-methyl-5-(7-methyl-2-(methylamino)pyrido[2,3-d]pyrimidin-6-yl)phenyl)-3-(trifluoromethyl)pyrrolidine-1-carboxamide]

Same assay, conditions: read-out: RAF-1 IC50

IC50, ≤ 10 nM:
CNc1ncc2cc(-c3cc(NC(=O)N4CCO[C@@H](C(C)(C)C)C4)c(F)cc3C)c(C)nc2n1 [Example 23, (S)-2-(tert-butyl)-N-(2-fluoro-4-methyl-5-(7-methyl-2-(methylamino)pyrido[2,3-d]pyrimidin-6-yl)phenyl)morpholine-4-carboxamide]
CNc1ncc2cc(-c3cc(NC(=O)N4CCO[C@H](C(C)(C)C)C4)c(F)cc3C)c(C)nc2n1 [Example 22, (R)-2-(tert-butyl)-N-(2-fluoro-4-methyl-5-(7-methyl-2-(methylamino)pyrido[2,3-d]pyrimidin-6-yl)phenyl)morpholine-4-carboxamide]
CNc1ncc2cc(-c3cc(NC(=O)c4ccnc(C(F)(F)F)c4)ccc3C)c(C)nc2n1 [Example 6, N-[4-methyl-3-[7-methyl-2-(methylamino)pyrido[2,3-d]pyrimidin-6-yl]phenyl]-2-(trifluoromethyl)pyridine-4-carboxamide]
